Our source for the Ki values is US6794365B2, “Malonic acid derivatives, processes for their preparation their use and pharmaceutical compositions containing them” (Aventis Pharma Deutschland GmbH, priority 2000, dated 2004).

Where a name gives a salt, the structure may show the parent alone.

The target in this assay is factor Xa (Homo sapiens, UniProt P00742). Description: In vitro Factor Xa assay (Test 1a), chromogenic substrate S-2765. Type of assay: biochemical. Set-up: purchased Enzyme Research Laboratories, Inc; South Bend, Ind. The conditions noted are these: Factor Xa inhibitory activity; Ki from IC50 corrected for substrate competition; 25° C., pH 7.8; read-out: Ki (FXa). As to the method: Purified enzymes are used in chromogenic assays. To determine the inhibition constant, the IC50 value is corrected for competition with substrate using the formula: […] where Km is the Michaelis-Menten-constant (Y.-C. Chen and W. H. Prusoff, Biochem. Pharmacol. 22: […] (1973), which is incorporated herein by reference). TBS-PEG buffer (50 mM Tris-Cl, pH 7.8, 200 mM NaCl, 0.05% (w/v) PEG-8000, 0.02% (w/v) NaN3) is used for this assay. The IC50 is determined by combining in appropriate wells of a Costar half-area microtiter plate 25 μl human factor Xa (Enzyme Research Laboratories, Inc.; South Bend, Ind.) in TBS-PEG; 40 μl 10% (v/v) DMSO in TBS-PEG (uninhibited control) or various concentrations of the compound to be tested diluted in 10% (v/v) DMSO in TBS-PEG; and substrate S-2765 (N-benzyloxycarbonyl-[…]-nitroanilide; Kabi Pharmacia, Inc.; Franklin Ohio) in TBS-PEG. […] The initial velocity of chromogenic substrate hydrolysis is measured by the change in absorbance at 405 nm using a Bio-tek Instruments kinetic plate reader ([…] 25° C. during the linear portion of the time course (usually 1.5 min after addition of substrate).
Chain of factor Xa (P00742 235-488 limits assumed): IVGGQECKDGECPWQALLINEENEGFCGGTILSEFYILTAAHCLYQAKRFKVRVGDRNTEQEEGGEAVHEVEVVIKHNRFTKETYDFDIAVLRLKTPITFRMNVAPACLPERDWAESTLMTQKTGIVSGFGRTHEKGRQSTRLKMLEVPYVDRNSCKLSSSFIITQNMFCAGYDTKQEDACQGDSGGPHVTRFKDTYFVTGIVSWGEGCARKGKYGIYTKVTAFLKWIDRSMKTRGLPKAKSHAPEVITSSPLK
Chain of factor Xa (P00742 41-179 partner limits assumed): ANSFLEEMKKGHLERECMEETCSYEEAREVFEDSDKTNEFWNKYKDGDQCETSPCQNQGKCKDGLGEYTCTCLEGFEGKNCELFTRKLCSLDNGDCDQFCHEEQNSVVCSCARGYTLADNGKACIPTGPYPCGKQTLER
`CN(C)C(=O)C(Cc1ccc(C(=N)NO)cc1)C(=O)N[C@H](C(=O)N[C@@H](CCCNC(=N)N)C(N)=O)C1CCCCC1` (single isomer, unassigned; less polar) [Example 3]: the Ki (as a rule, the equilibrium dissociation constant of an inhibitor or competing ligand from its target) worked out at 156 nM.

On to `C=CCOC(=O)[C@H](CCCNC(=N)N)NC(=O)[C@@H](NC(=O)C(Cc1ccc(C(=N)N)cc1)C(=O)N(C)Cc1ccccc1)C1CCCCC1` (single isomer, unassigned; less polar) [Example 6], for which the Ki came to 1 nM.

In the case of `CC(C)C[C@H](NC(=O)[C@H](CCCNC(=N)N)NC(=O)[C@@H](NC(=O)C(Cc1ccc(N)cc1)C(=O)N(C(C)C)C(C)C)C1CCCCC1)C(=O)N1CCC[C@H]1C(N)=O` (single isomer, unassigned; less polar) [Example 97], the Ki came out at 40 nM.

`CCOC(=O)[C@H](CCCNC(=N)N)NC(=O)[C@@H](NC(=O)C(Cc1ccc(C(=N)N)cc1)C(=O)NCc1ccccc1)C1CCCCC1` (single isomer, unassigned; less polar) [Example 136]: the inhibitory constant (Ki) amounted to 10 nM.

For the compound `N=C(N)NCCC[C@H](NC(=O)[C@@H](NC(=O)C(Cc1ccc(C(=N)N)cc1)C(=O)NCc1ccccc1)C1CCCCC1)C(N)=O` (single isomer, unassigned; more polar) [Example 8], the Ki was found to be 35.1 nM.

In the case of `CC(C)C[C@H](NC(=O)[C@H](Cc1ccc[n+](C)c1)NC(=O)[C@@H](NC(=O)C(Cc1ccc(C(=N)N)cc1)C(=O)N(C(C)C)C(C)C)C1CCCCC1)C(=O)N1CCC[C@H]1C(N)=O` (single isomer, unassigned; more polar) [Example 94], the inhibitory constant (Ki) was 1700 nM.

In the case of `CN(C)C(=O)C(Cc1ccc(C(=N)N)cc1)C(=O)N[C@H](C(=O)N(CC(N)=O)Cc1ccncc1)C1CCCCC1` (single isomer, unassigned; more polar) [Example 104], the inhibition constant (Ki) came out at 6500 nM.

Regarding `N=C(N)NCCC[C@H](NC(=O)[C@@H](NC(=O)C(Cc1ccc(C(=N)NO)cc1)C(=O)NCc1ccccc1)C1CCCCC1)C(N)=O` (single isomer, unassigned; more polar) [Example 129], the Ki was 360 nM.

For the compound `CN(C)C(=O)C(Cc1ccc(C(=N)N)cc1)C(=O)N1Cc2ccccc2C[C@H]1C(=O)N[C@@H](CCCNC(=N)N)C(N)=O` (stereo partly drawn) [Example 10, 2-[3-(4-Carbamimidoyl-phenyl)-2-dimethylcarbamoyl-propionyl]-1,2,3,4-tetrahydro-isoquinoline-3-(S)-carboxylic acid (1-(S)-carbamoyl-4-guanidino-butyl)-amide trifluoroacetic acid salt], the Ki was determined as 604 nM.

Take `N=C(N)NCCC[C@H](NC(=O)[C@@H](NC(=O)C(Cc1ccc(C(=N)NO)cc1)C(=O)NCc1ccccc1)C1CCCCC1)C(N)=O` (stereo partly drawn) [Example 14, N-Benzyl-N′-[(S)-(1-(S)-carbamoyl-4-guanidino-butylcarbamoyl)-cyclohexyl-methyl]-2-[4-(N-hydroxycarbamimidoyl)-benzyl]-malonamide trifluoroacetic acid salt]: the Ki amounted to 21.8 nM.

As for `C=CCNC(=O)C(Cc1ccc(C(=N)N)cc1)C(=O)N[C@@H](Cc1ccc(N)cc1)C(=O)N[C@@H](CCCNC(=N)N)C(N)=O` (stereo partly drawn) [Example 17, N-Allyl-N′-[2-(4-amino-phenyl)-1-(S)-(1-(S)-carbamoyl-4-guanidino-butylcarbamoyl)-ethyl]-2-(4-carbamimidoyl-benzyl)-malonamide trifluoroacetic acid salt], the inhibitory constant (Ki) was determined as 2290 nM.

For the compound `CCC(C)[C@@H](C(=O)N[C@@H](CCCNC(=N)N)C(N)=O)N(C)C(=O)C(Cc1ccc(C(=N)N)cc1)C(=O)Nc1ccccc1` (stereo partly drawn) [Example 21, 2-(4-Carbamimidoyl-benzyl)-N-[1-(S)-(1-(S)-carbamoyl-4-guanidino-butylcarbamoyl)-2-methyl-butyl]-N-methyl-N′-phenyl-malonamide trifluoroacetic acid salt], the Ki was determined as 8370 nM.
